Measured values taken from ChEMBL document CHEMBL3875174, “Further investigation of Paprotrain: Towards the conception of selective and multi-targeted CNS kinase inhibitors” (Eur J Med Chem, 2016).

How the values were obtained:
[1] = molecular target: Dual specificity protein kinase CLK1 (Homo sapiens, UniProt P49759); assay: Inhibition of GST-tagged human recombinant CLK1 expressed in Escherichia coli using RS peptide as substrate incubated for 30 mins in presence of [gamma-33 P] ATP by liquid scintillation counting analysis
[2] = molecular target: Dual specificity tyrosine-phosphorylation-regulated kinase 1A (Homo sapiens, UniProt Q13627); assay: Inhibition of GST-tagged human recombinant DYRK1A expressed in Escherichia coli using RS peptide as substrate incubated for 30 mins in presence of [gamma-33 P] ATP by liquid scintillation counting analysis
[3] = molecular target: Dual specificity tyrosine-phosphorylation-regulated kinase 1B (Homo sapiens, UniProt Q9Y463); assay: Inhibition of GST-tagged human recombinant DYRK1B expressed in Escherichia coli using RS peptide as substrate incubated for 30 mins in presence of [gamma-33 P] ATP by liquid scintillation counting analysis
[4] = molecular target: Cyclin-dependent kinase 5/CDK5 activator 1 (Homo sapiens, UniProt Q00535); assay type: protein-complex assay
[5] = molecular target: Dual specificity protein kinase CLK3 (Homo sapiens, UniProt P49761); assay: Inhibition of GST-tagged human recombinant CLK3 expressed in Escherichia coli using RS peptide as substrate incubated for 30 mins in presence of [gamma-33 P] ATP by liquid scintillation counting analysis
[6] = molecular target: Dual specificity protein kinase CLK4 (Homo sapiens, UniProt Q9HAZ1); assay: Inhibition of GST-tagged human recombinant CLK4 expressed in Escherichia coli using RS peptide as substrate incubated for 30 mins in presence of [gamma-33 P] ATP by liquid scintillation counting analysis
[7] = molecular target: Glycogen synthase kinase-3 (Sus scrofa, UniProt B2LUN4+I6LNT8); assay: Inhibition of porcine brain GSK3alpha/beta using GS-1 as substrate incubated for 30 mins in presence of [gamma-33 P] ATP by liquid scintillation counting analysis
[8] = molecular target: Dual specificity protein kinase CLK2 (Homo sapiens, UniProt P49760); assay: Inhibition of GST-tagged human recombinant CLK2 expressed in Escherichia coli using RS peptide as substrate incubated for 30 mins in presence of [gamma-33 P] ATP by liquid scintillation counting analysis
[9] = Cytotoxicity against human KB cells assessed as growth inhibition at 1 uM after 72 hrs by MTS assay; assay type: toxicity, cell-based; settings: for growth inhibition (GI): kb, 72 h, 1 µM
[10] = Inhibition of porcine brain CK1 delta/epsilon using RRKHAAIGpSAYSITA as substrate incubated for 30 mins in presence of [gamma-33 P] ATP by liquid scintillation counting analysis; set-up: species or system Sus scrofa

Chain of Dual specificity protein kinase CLK4 (Q9HAZ1 whole entry): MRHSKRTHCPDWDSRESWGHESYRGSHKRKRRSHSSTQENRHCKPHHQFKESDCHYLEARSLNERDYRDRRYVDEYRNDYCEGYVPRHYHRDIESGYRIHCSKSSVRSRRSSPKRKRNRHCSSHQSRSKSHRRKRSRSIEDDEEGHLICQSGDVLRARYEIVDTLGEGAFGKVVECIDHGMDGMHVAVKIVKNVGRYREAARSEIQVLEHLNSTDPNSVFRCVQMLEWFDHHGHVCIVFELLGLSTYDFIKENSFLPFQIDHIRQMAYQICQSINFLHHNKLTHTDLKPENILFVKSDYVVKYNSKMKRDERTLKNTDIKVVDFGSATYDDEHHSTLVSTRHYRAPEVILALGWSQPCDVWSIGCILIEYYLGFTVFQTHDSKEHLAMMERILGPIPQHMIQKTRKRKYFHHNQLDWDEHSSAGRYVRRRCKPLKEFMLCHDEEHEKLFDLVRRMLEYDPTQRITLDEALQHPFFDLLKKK
Chain of Dual specificity protein kinase CLK3 (P49761 whole entry): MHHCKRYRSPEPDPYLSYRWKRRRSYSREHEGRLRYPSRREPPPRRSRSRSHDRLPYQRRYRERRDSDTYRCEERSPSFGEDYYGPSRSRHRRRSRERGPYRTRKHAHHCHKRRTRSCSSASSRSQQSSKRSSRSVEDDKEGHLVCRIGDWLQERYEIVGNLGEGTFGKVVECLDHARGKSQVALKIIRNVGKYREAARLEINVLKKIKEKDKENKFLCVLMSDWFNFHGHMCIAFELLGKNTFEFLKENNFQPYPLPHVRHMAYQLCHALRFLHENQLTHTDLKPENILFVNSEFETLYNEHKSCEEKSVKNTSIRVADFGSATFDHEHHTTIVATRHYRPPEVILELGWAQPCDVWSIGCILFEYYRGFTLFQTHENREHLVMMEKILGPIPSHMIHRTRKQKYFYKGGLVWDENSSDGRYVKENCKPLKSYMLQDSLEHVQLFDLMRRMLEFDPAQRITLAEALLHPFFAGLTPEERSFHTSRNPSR
Chain of Dual specificity protein kinase CLK2 (P49760 whole entry): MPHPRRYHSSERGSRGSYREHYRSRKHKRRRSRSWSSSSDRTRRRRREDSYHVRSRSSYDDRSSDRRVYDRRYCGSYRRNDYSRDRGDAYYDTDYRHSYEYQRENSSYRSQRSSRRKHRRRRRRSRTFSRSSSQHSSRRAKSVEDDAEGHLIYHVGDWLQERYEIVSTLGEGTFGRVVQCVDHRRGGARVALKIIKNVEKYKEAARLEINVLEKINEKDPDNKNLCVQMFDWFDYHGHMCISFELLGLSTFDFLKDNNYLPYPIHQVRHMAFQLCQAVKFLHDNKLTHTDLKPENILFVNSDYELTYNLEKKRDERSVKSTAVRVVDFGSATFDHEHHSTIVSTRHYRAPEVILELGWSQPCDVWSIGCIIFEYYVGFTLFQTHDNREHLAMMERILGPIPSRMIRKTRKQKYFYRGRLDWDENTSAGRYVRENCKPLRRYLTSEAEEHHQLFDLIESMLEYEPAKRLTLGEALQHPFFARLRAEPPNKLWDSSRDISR
Chain of Cyclin-dependent kinase 5/CDK5 activator 1 (Q00535 whole entry): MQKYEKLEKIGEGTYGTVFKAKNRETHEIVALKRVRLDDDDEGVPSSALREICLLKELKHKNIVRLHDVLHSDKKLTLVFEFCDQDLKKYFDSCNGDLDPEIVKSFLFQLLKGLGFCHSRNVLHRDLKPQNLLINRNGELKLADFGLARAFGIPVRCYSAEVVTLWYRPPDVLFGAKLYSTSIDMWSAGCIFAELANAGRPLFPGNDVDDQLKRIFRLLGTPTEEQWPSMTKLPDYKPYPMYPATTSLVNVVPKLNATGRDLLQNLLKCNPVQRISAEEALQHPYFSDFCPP
Chain of Cyclin-dependent kinase 5/CDK5 activator 1 (Q15078 whole entry, further chain): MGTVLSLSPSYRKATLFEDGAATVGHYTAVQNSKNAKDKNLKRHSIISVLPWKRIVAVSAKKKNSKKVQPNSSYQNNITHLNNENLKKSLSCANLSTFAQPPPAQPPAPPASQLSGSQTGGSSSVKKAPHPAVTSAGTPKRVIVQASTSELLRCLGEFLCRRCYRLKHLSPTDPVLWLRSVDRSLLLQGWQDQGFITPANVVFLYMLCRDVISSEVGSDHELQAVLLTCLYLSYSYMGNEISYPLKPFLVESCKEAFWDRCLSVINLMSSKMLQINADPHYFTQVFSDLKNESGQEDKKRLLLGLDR
Chain of Dual specificity tyrosine-phosphorylation-regulated kinase 1B (Q9Y463 whole entry): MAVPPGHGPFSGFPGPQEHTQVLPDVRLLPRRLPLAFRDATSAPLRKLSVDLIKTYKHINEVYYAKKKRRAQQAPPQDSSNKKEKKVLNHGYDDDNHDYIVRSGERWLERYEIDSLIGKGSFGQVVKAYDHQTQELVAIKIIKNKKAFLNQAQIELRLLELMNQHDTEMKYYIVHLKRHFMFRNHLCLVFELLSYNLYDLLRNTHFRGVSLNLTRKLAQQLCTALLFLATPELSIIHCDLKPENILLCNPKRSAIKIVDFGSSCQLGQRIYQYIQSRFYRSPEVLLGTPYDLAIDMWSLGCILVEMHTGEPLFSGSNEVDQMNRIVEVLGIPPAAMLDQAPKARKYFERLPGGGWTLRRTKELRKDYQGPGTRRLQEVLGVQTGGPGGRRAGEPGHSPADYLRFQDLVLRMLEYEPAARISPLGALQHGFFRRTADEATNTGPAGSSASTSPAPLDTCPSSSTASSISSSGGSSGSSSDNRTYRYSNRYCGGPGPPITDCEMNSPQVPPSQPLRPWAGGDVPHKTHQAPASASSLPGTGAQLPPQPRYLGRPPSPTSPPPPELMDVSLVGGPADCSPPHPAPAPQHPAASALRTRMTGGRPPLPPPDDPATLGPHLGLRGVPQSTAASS
Chain of Dual specificity protein kinase CLK1 (P49759 whole entry): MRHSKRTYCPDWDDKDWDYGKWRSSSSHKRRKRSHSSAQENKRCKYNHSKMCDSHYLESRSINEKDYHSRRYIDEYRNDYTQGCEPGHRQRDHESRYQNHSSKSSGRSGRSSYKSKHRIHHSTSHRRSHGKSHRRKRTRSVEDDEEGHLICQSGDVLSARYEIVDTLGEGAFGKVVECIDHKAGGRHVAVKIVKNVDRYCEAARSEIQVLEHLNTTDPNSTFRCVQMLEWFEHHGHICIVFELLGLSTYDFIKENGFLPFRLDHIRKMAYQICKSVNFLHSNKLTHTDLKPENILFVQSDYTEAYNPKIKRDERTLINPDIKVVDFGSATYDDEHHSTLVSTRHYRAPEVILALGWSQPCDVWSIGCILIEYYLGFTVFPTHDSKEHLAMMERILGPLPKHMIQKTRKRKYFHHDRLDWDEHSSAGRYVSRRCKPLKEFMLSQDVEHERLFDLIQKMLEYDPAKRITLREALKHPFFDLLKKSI

SMILES	IC50 [1] [nM]	IC50 [2] [nM]	IC50 [3] [nM]	IC50 [4] [nM]	IC50 [5] [nM]	IC50 [6] [nM]	IC50 [7] [nM]	IC50 [8] [nM]	IC50 [10] [nM]	growth inhibition (GI) [9]	inhibition at 72 h, 1 µM ([9]; KB cells, read-out: GI) [%]
N#Cc1cc2cnccc2c2[nH]c3ncccc3c12	160	440	160	780	6800	130	1800	400	> 10000	Non-Toxic	–
N#Cc1cc2cnccc2c2[nH]c3ccc(F)cc3c12	230	310	300	> 10000	> 10000	200	> 10000	610	> 10000	Non-Toxic	–
COc1ccc2[nH]cc(-c3cc4cnccc4cc3NC(C)=O)c2c1	34	850	590	8000	7000	22	> 10000	1100	> 10000	Non-Toxic	–

More lines, main results first:

IC50 [1] [nM]	IC50 [2] [nM]	IC50 [3] [nM]	IC50 [4] [nM]	IC50 [5] [nM]	IC50 [6] [nM]	IC50 [7] [nM]	IC50 [8] [nM]	IC50 [10] [nM]	SMILES	growth inhibition (GI) [9]	inhibition at 72 h, 1 µM ([9]; KB cells, read-out: GI) [%]
230	180	100	> 10000	> 10000	71	> 10000	2300	> 10000	COc1ccc2c(/C(C#N)=C/c3cccnc3)c[nH]c2n1	Non-Toxic	–
16	21	240	130	> 10000	47	720	4600	> 10000	N#C/C(=C\c1cccnc1)c1c[nH]c2ncccc12	–	29
